Data as given in ChEMBL document CHEMBL3988442, “University of Dundee, Small-Polar-MMV Screening Library” (2021).

Experiments:
[1] = biological target: Sialic acid-binding Ig-like lectin 9 (Homo sapiens, UniProt Q9Y336); assay: Hs-Siglec9 ALPHAscreen SOP 20170721
[2] = biological target: T1, Coenzyme A biosynthesis bifunctional protein CoaBC (Mycobacterium tuberculosis (strain ATCC 25618 / H37Rv), UniProt P9WNZ1); assay: Biomol Green assay for MtCoaBC inhibitor, OD650 read; assay type: functional
T1 sequence (P9WNZ1 whole entry): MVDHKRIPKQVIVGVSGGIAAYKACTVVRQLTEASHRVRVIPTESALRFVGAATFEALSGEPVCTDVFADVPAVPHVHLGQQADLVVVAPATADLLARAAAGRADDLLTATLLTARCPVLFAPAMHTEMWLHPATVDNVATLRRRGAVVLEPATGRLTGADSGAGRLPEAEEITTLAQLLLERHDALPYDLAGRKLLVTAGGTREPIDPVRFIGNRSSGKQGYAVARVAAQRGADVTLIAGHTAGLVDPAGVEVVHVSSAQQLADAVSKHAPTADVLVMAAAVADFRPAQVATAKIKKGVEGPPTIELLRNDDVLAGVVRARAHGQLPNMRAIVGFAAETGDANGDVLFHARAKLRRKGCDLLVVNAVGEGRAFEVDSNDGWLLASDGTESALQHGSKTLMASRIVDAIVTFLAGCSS

Plasmodium falciparum = assay: Calibr Malaria Delayed Death Assay SOP; assay type: functional, organism-based
ClpP1P2 = ClpP1P2 (Mycobacterium tuberculosis (strain ATCC 25618 / H37Rv), UniProt P9WPC3+P9WPC5); assay: in vitro assay to detect presence of AMC directly proportional to the activity of ClpP1P2. GHDDI collaboration.; assay type: functional
[3] = In vitro enzyme assay to detect hydrolysis of chlorophenol red-beta-D-[…] directly proportional to the number of Toxoplasma stably expressing beta-galactosidase; assay type: functional, organism-based, Toxoplasma gondii; details: Toxoplasma gondii

Row | SMILES | IC50 [1] [µM] | further results
1 | CCn1cnnc1C1CCN(C(=O)c2cc(C)n(CC)c2C)CC1 | > 30.2 | 
2 | Cc1cc(C(=O)N2CCCC(c3cc(=O)nc4n3CCC4)C2)on1 (configuration not stated) | > 30.2 | IC50 [2]: > 30.2 µM
3 | CC(=O)NCCCSC1CCN(c2c(F)cccc2F)C1=O (configuration not stated) | > 30.2 | 
4 | COc1ccc(C(C)NCc2ccsc2)cc1Cn1cccn1 (configuration not stated) | > 30.2 | pIC50 (Plasmodium falciparum): 6.257; IC50 (Plasmodium falciparum; Plasmodium falciparum): 0.477 µM
5 | CCOc1cccc(C2CC(=O)NCc3nc(N4CCCC4)sc32)c1 (configuration not stated) | > 30.2 | 
6 | CCn1ncc2c1C(COC)CN(Cc1ccsc1)C2 (configuration not stated) | > 30.2 | 
7 | CC(C)NC(=O)c1csc(NC2CC2)n1 | > 30.2 | 
8 | CCOC(=O)Cc1csc(NC(=O)c2cc3n(n2)CCCO3)n1 | > 30.2 | 
9 | Cc1occc1C(=O)N1C[C@H](Oc2ccccn2)[C@H]2OCCC[C@H]21 | > 30.2 | 
10 | O=C(NCCc1nncn1C1CC1)C1SCCc2ccccc21 (configuration not stated) | > 30.2 | 
11 | Cc1csc(CN2C[C@@H]3COC[C@]3(COCC(=O)N(C)C)C2)n1 | > 30.2 | 
12 | CC(C)CCN1CCC2(CC1)NCc1ccccc1NC2=O | > 30.2 | 
13 | O=C(NCCc1nncn1C1CC1)c1cc2ccccn2c1 | > 30.2 | IC50 (ClpP1P2): > 100 µM
14 | CCn1nc(C)c(NC(=O)c2nnn(Cc3ccccc3)c2OC)c1C | > 30.2 | IC50 [3]: > 50.1 µM
15 | CNc1ncc(CN(C)C(=O)c2cccc(-n3cccn3)c2)cn1 | > 30.2 | 
16 | Cc1cc(C(=O)N2CCCS2(=O)=O)c(C)o1 | > 30.2 | 
17 | CCOC(=O)[C@H]1[C@@H](O)C(=O)N(C)C12CCN(C(=O)CC1CCCC1)CC2 | > 30.2 | 
18 | CCOCCCNC(=O)c1nnn(Cc2ccccc2)c1OC | > 30.2 | IC50 [3]: > 50.1 µM
19 | CCn1ncc2c1C(COC)CN(Cc1cnn(C)c1)C2 (configuration not stated) | > 30.2 | 
20 | FC(F)(F)c1cc(C2CCN(c3cnccn3)CC2)n2ccnc2n1 | > 30.2 | IC50 (ClpP1P2): > 100 µM
21 | COc1cc(C(=O)N2CCC(Nc3cccnc3)CC2)ccc1C | > 30.2 | 
22 | CCOC(=O)[C@H]1[C@@H](O)C(=O)N(C)C12CCN(S(=O)(=O)CC)CC2 | > 30.2 | 
23 | CC(=O)N[C@@H]1CN(c2nc(C(N)=O)cs2)C[C@H]1c1ccc(C)o1 | > 30.2 | 

Row | SMILES | IC50 [1] [µM] | further results
24 | Cc1ccnc(NC(=O)c2c(C)oc(C)c2C)c1 | > 30.2 | 
25 | CCn1ncnc1C1CC(=O)NCc2nc(N3CCOCC3)sc21 (configuration not stated) | > 30.2 | 
26 | NC(=O)c1csc(N2C[C@@H](CN3CCOCC3)[C@@H](CO)C2)n1 | > 30.2 | 
27 | CC(C)n1cnnc1C1CCCN(C(=O)COCc2ccccc2)C1 (configuration not stated) | > 30.2 | 
28 | CCOC(=O)[C@H]1[C@@H](O)C(=O)N(C)C12CCN(C(=O)c1ccccc1)CC2 | > 30.2 | 
29 | CCC(C(=O)NCc1csc(N2CCOCC2)n1)n1cccn1 (configuration not stated) | > 30.2 | 
30 | CCn1ncnc1C1CC(=O)NCc2nc(N3CCCC3)sc21 (configuration not stated) | > 30.2 | 
31 | Cc1ccnc(N2CCCC(c3nncn3C3CC3)C2)n1 (configuration not stated) | > 30.2 | 
32 | COC(=O)CC1CCN(C(=O)c2ccccc2-n2nnnc2C)CC1 | > 30.2 | 
33 | COCc1cc(N2CCN(C3CCCCC3)CC2)n2nccc2n1 | > 30.2 | 
34 | O=C(C1=CCCC1)N1CCO[C@H]2[C@@H](Oc3ccccn3)CC[C@@H]21 | > 30.2 | 
35 | COC(=O)CC1CCN(C(=O)c2ccc(C)cc2)CC1 | > 30.2 | 
36 | COC(=O)C(O)C1CCN(CCc2ccccn2)CC1 (configuration not stated) | > 30.2 | 
37 | CCOC(=O)[C@H]1[C@@H](O)C(=O)N(C)C12CCN(C(=O)OCC)CC2 | > 30.2 | 
38 | CCn1nnc2c1C(COC)CN(Cc1ccsc1)C2 (configuration not stated) | > 30.2 | 
39 | CC(C)n1cnnc1C1CCCN(S(=O)(=O)CCCC#N)C1 (configuration not stated) | > 30.2 | 
40 | Cc1occc1C(=O)N1CCCS1(=O)=O | > 30.2 | 
41 | c1cc2occc2c(N2CCCC(c3nncn3C3CC3)C2)n1 (configuration not stated) | > 30.2 | 
42 | O=C(NCCc1nncn1C1CC1)C1SCCc2sccc21 (configuration not stated) | > 30.2 | 
43 | CN(C)CC(=O)N1CCC2(CC1)COc1ccccc1S(=O)(=O)N(C)C2 | > 30.2 | 
44 | Cc1nc(CC(=O)NCc2csc(N3CCCC3)n2)cs1 | > 30.2 | 
45 | O=C(NC1CC1)C1CCN(c2nc3nc[nH]c(=O)c3s2)CC1 | > 30.2 | 
